{"source": "patent US20190240225A1", "about": "“COMBINATION OF A BCL-2 INHIBITOR AND A MCL-1 INHIBITOR, USES AND PHARMACEUTICAL COMPOSITIONS THEREOF” (LES LABORATOIRES SERVIER, priority 2016, published 2019)", "key": {"KMS11": {"system": "KMS11", "assay": "MTT cell viability assay, myeloma cell line", "type": "cell-based, human", "protocol": "(§1) Cell lines: Human myeloma cell lines (HMCLs) were derived from primary myeloma cells cultured in RPMI 1640 medium supplemented with 5% fetal calf serum from and 3 ng/mL recombinant IL-6 for IL-6 dependent cell lines. HMCLs are representative of phenotypic and genomic heterogeneity and the variability in patient's response to therapy.\n(§2) MTT assay: Cell viability is measured using MTT (3-(4,5-dimethylthiazol-2-yl)-2,5-diphenyltetrazolium bromide) colorimetric survival assay. Cells are incubated with compounds in 96-well plates containing a final volume of 100 μl/well time. (2R)-2-{[(5Sa)-5-{3-chloro-2-methyl-4-[2-(4-methylpiperazin-1-yl)ethoxy]phenyl}-6-(5-fluorofuran-2-yl)thieno[2,3-d]pyrimidin-4-yl]oxy}-3-(2-{[1-(2,2,2-trifluoroethyl)-1H-pyrazol-5-yl]methoxy}phenyl)propanoic acid (Compound 2) is used at 9 different concentrations accordingly to single agent sensitivity. N-(4-hydroxyphenyl)-3-{6-[((3S)-3-(4-morpholinylmethyl)-3,4-dihydro-2(1H)-isoquinolinyl)carbonyl]-1,3-benzodioxol-5-yl}-N-phenyl-5,6,7,8-tetrahydro-1-indolizine carboxamide hydrochloride (Compound 1, HCl) is used at a fixed dose—1 μM. At the end of each treatment, cells are incubated with 1 mg/mL MTT (50 μl MTT solution 2.5 mg/ml for each well) at 37° C. for 3 hours allowing the MTT to be metabolized. Lysis buffer (100 μl Lysis buffer: DMF (2:3)/SDS (1:3)) is added into each well to dissolve formazan cristals and after 18 h of incubation, absorbance in viable cells is measured at 570 nm using a spectrophotometer.\n(§3) The sensitivity of 27 human multiple myeloma cell lines to Compound 1, Compound 2 or to Compound 2 in the presence of 1 μM of Compound 1 was analyzed by using MTT cell viability assay. 50% inhibitory concentrations (IC50, in nM) were determined."}, "OPM2": {"system": "OPM2", "assay": "MTT cell viability assay, myeloma cell line", "type": "cell-based, human", "protocol": "as §1, §2, §3"}, "AMO1": {"system": "AMO1", "assay": "MTT cell viability assay, myeloma cell line", "type": "cell-based, human", "protocol": "as §1, §2, §3"}, "KMS12BM": {"system": "KMS12BM", "assay": "MTT cell viability assay, myeloma cell line", "type": "cell-based, human", "protocol": "as §1, §2, §3"}, "U266": {"system": "U266", "assay": "MTT cell viability assay, myeloma cell line", "type": "cell-based, human", "protocol": "as §1, §2, §3"}, "L363": {"system": "L363", "assay": "MTT cell viability assay, myeloma cell line", "type": "cell-based, human", "protocol": "as §1, §2, §3"}, "XG1": {"system": "XG1", "assay": "MTT cell viability assay, myeloma cell line", "type": "cell-based, human", "protocol": "as §1, §2, §3"}, "NCI-H929": {"system": "NCI-H929", "assay": "MTT cell viability assay, myeloma cell line", "type": "cell-based, human", "protocol": "as §1, §2, §3"}, "NAN8": {"system": "NAN8", "assay": "MTT cell viability assay, myeloma cell line", "type": "cell-based, human", "protocol": "as §1, §2, §3"}, "NAN9": {"system": "NAN9", "assay": "MTT cell viability assay, myeloma cell line", "type": "cell-based, human", "protocol": "as §1, §2, §3"}, "XG2": {"system": "XG2", "assay": "MTT cell viability assay, myeloma cell line", "type": "cell-based, human", "protocol": "as §1, §2, §3"}, "XG11": {"system": "XG11", "assay": "MTT cell viability assay, myeloma cell line", "type": "cell-based, human", "protocol": "as §1, §2, §3"}, "XG6": {"system": "XG6", "assay": "MTT cell viability assay, myeloma cell line", "type": "cell-based, human", "protocol": "as §1, §2, §3"}, "SBN": {"system": "SBN", "assay": "MTT cell viability assay, myeloma cell line", "type": "cell-based, human", "protocol": "as §1, §2, §3"}, "JJN3": {"system": "JJN3", "assay": "MTT cell viability assay, myeloma cell line", "type": "cell-based, human", "protocol": "as §1, §2, §3"}, "RPMI8226": {"system": "RPMI8226", "assay": "MTT cell viability assay, myeloma cell line", "type": "cell-based, human", "protocol": "as §1, §2, §3"}, "BCN": {"system": "BCN", "assay": "MTT cell viability assay, myeloma cell line", "type": "cell-based, human", "protocol": "as §1, §2, §3"}, "JIM3": {"system": "JIM3", "assay": "MTT cell viability assay, myeloma cell line", "type": "cell-based, human", "protocol": "as §1, §2, §3"}, "ANBL6": {"system": "ANBL6", "assay": "MTT cell viability assay, myeloma cell line", "type": "cell-based, human", "protocol": "as §1, §2, §3"}, "MM1S": {"system": "MM1S", "assay": "MTT cell viability assay, myeloma cell line", "type": "cell-based, human", "protocol": "as §1, §2, §3"}, "NAN3": {"system": "NAN3", "assay": "MTT cell viability assay, myeloma cell line", "type": "cell-based, human", "conditions": "single agent", "protocol": "as §1, §2, §3"}, "NAN1": {"system": "NAN1", "assay": "MTT cell viability assay, myeloma cell line", "type": "cell-based, human", "protocol": "as §1, §2, §3"}, "XG7": {"system": "XG7", "assay": "MTT cell viability assay, myeloma cell line", "type": "cell-based, human", "protocol": "as §1, §2, §3"}, "LP1": {"system": "LP1", "assay": "MTT cell viability assay, myeloma cell line", "type": "cell-based, human", "protocol": "as §1, §2, §3"}, "NAN6": {"system": "NAN6", "assay": "MTT cell viability assay, myeloma cell line", "type": "cell-based, human", "protocol": "as §1, §2, §3"}, "XG3": {"system": "XG3", "assay": "MTT cell viability assay, myeloma cell line", "type": "cell-based, human", "protocol": "as §1, §2, §3"}, "KMM1": {"system": "KMM1", "assay": "MTT cell viability assay, myeloma cell line", "type": "cell-based, human", "protocol": "as §1, §2, §3"}, "MV4;11 AML cells": {"system": "MV4;11 AML cells", "assay": "Luciferase MV4;11 AML engraftment model in NSG mice", "type": "in vivo, mouse", "conditions": "MV4;11-luciferase, Compound 1, HCl 100 mg/kg oral daily, Compound 2 25 mg/kg IV twice weekly, 4 weeks", "description": "In vivo experimentation AML engraftment: Animal studies were performed under the institutional guidelines approved by the Alfred Medical Research and Education Precinct Animal Ethics Committee, MV4; 11 cells transduced with the luciferase reporter (pLUC2) were intravenously injected at 1×10^5 cells into irradiated (100 Rad) non-obese diabetic/severe combined immunodeficient (NOD/SCID/IL2rγnull) mice as previously described (Jin et al., Cell Stem Cell 2 Jul. 2009, Volume 5, Issue 1, Pages 31-42). Engraftment was measured at day 7 by quantifying the percentage of hCD45+ cells in the PB by flow cytometry and by IVIS imaging of bioluminescent MV4; 11 cells. At day 10, mice received daily oral gavage of Compound 1, HCl (200 μL 100mg/kg—dosage expressed as the free base) dissolved in PEG400 (Sigma), absolute ethanol (Sigma) and distilled H20 40:10:60 or Compound 2 (200 μL 25 mg/kg) twice weekly dissolved in 50% 2-hydroxypropyl)-β-cyclodextrin (Sigma) and 50% 50mM HCl or the drug combination or vehicle, over 4 weeks. Blood counts were determined using a hematology analyzer (BioRad, Gladesville, NSW). […]\nTo verify the in vivo activity of this approach, luciferase expressing MV4; 11 AML cells were engrafted into NSG mice and treated with Compound 1 (HCl salt) or Compound 2 alone, or in combination and tumour burden assessed after 14 and 21 days of therapy (FIG. 2B). […]"}, "primary AML blasts": {"system": "primary AML blasts", "assay": "Cell viability (sytox blue, flow cytometry) of primary AML patient samples, LC50", "type": "cell-based, human", "conditions": "54 primary AML samples; 48 h; RPMI/15% FCS; combination at 1:1", "description": "Primary AML patient samples: Bone marrow or peripheral blood samples from patients with AML were collected after informed consent in accordance with guidelines approved by The Alfred Hospital Human research ethics committees. Mononuclear cells were isolated by Ficoll-Paque (GE Healthcare, VIC, Aus) density-gradient centrifugation, followed by red cell depletion in ammonium chloride (NH4Cl) lysis buffer at 37° C. for 10 minutes. Cells were then re-suspended in phosphate-buffered saline containing 2% Fetal Bovine serum (Sigma, NSW, Aus). Mononuclear cells were then suspended in RPMI-1640 (GIBCO VIC, Aus) medium containing penicillin and streptomycin (GIBCO) and heat inactivated fetal bovine serum 15% (Sigma).\nCell Viability: Freshly purified mononuclear cells from AML patient samples were adjusted to a concentration of 2.5×10^5/ml and 100 μL of cells aliquoted per well into 96 well plates (Sigma). […] For combinations assays, drugs were added at a 1:1 ratio from 1 nM to 10 μM and incubated at 37° C. 5% CO2. Cells were then stained with sytox blue nucleic acid stain (Invitrogen, VIC, Aus) and fluorescence measured by flow cytometric analysis using the LSR-II Fortessa (Becton Dickinson, NSW, Aus). FACSDiva software was used for data collection, and FlowJo software for analysis. Blast cells were gated using forward and side scatter properties. […]"}, "[1]": {"conditions": "+ 1 μM Compound 1, HCl, read-out: IC50 of Compound 2 in the presence of 1 μM of Compound 1, HCl"}}, "note": "Read-outs that look alike come from different tables or passages of the source."}
{"smiles": "Cc1c(-c2c(-c3ccc(F)o3)sc3ncnc(O[C@H](Cc4ccccc4OCc4ccnn4CC(F)(F)F)C(=O)O)c23)ccc(OCCN2CCN(C)CC2)c1Cl", "note": "[Compound 2, (2R)-2-{[(5Sa)-5-{3-chloro-2-methyl-4-[2-(4-methylpiperazin-1-yl)ethoxy]phenyl}-6-(5-fluorofuran-2-yl)thieno[2,3-d]pyrimidin-4-yl]oxy}-3-(2-{[1-(2,2,2-trifluoroethyl)-1H-pyrazol-5-yl]methoxy}phenyl)propanoic acid]", "values": [{"measurement": "IC50", "setting": "KMS11; [1]", "value": 3.9, "unit": "nM"}, {"measurement": "IC50", "setting": "KMS11; single agent, read-out: IC50", "value": 44.1, "unit": "nM"}, {"measurement": "IC50", "setting": "OPM2; [1]", "value": 1.2, "unit": "nM"}, {"measurement": "IC50", "setting": "OPM2; single agent, read-out: IC50", "value": 9.4, "unit": "nM"}, {"measurement": "IC50", "setting": "AMO1; [1]", "value": 0.2, "unit": "nM"}, {"measurement": "IC50", "setting": "AMO1; single agent, read-out: IC50", "value": 0.5, "unit": "nM"}, {"measurement": "IC50", "setting": "KMS12BM; [1]", "value": 0.03, "unit": "nM"}, {"measurement": "IC50", "setting": "KMS12BM; single agent, read-out: IC50", "value": 44.1, "unit": "nM"}, {"measurement": "IC50", "setting": "U266; [1]", "value": 14.9, "unit": "nM"}, {"measurement": "IC50", "setting": "U266; single agent, read-out: IC50", "value": 170, "unit": "nM"}, {"measurement": "IC50", "setting": "L363; [1]", "value": 3.4, "unit": "nM"}, {"measurement": "IC50", "setting": "L363; single agent, read-out: IC50", "value": 7.6, "unit": "nM"}, {"measurement": "IC50", "setting": "XG1; [1]", "value": 0.2, "unit": "nM"}, {"measurement": "IC50", "setting": "XG1; single agent, read-out: IC50", "value": 5.9, "unit": "nM"}, {"measurement": "IC50", "setting": "NCI-H929; [1]", "value": 1, "unit": "nM"}, {"measurement": "IC50", "setting": "NCI-H929; single agent, read-out: IC50", "value": 2.3, "unit": "nM"}, {"measurement": "IC50", "setting": "NAN8; [1]", "value": 32.5, "unit": "nM"}, {"measurement": "IC50", "setting": "NAN8; single agent, read-out: IC50", "value": 75.4, "unit": "nM"}, {"measurement": "IC50", "setting": "NAN9; [1]", "value": 1.1, "unit": "nM"}, {"measurement": "IC50", "setting": "NAN9; single agent, read-out: IC50", "value": 9.7, "unit": "nM"}, {"measurement": "IC50", "setting": "XG2; [1]", "value": 2.7, "unit": "nM"}, {"measurement": "IC50", "setting": "XG2; single agent, read-out: IC50", "value": 6.4, "unit": "nM"}, {"measurement": "IC50", "setting": "XG11; [1]", "value": 8.3, "unit": "nM"}, {"measurement": "IC50", "setting": "XG11; single agent, read-out: IC50", "value": 375, "unit": "nM"}, {"measurement": "IC50", "setting": "XG6; [1]", "value": 0.5, "unit": "nM"}, {"measurement": "IC50", "setting": "XG6; single agent, read-out: IC50", "value": 19.2, "unit": "nM"}, {"measurement": "IC50", "setting": "SBN; [1]", "value": 14.6, "unit": "nM"}, {"measurement": "IC50", "setting": "SBN; single agent, read-out: IC50", "value": 221, "unit": "nM"}, {"measurement": "IC50", "setting": "JJN3; [1]", "value": 2.4, "unit": "nM"}, {"measurement": "IC50", "setting": "JJN3; single agent, read-out: IC50", "value": 15.6, "unit": "nM"}, {"measurement": "IC50", "setting": "RPMI8226; [1]", "value": 3, "unit": "nM"}, {"measurement": "IC50", "setting": "RPMI8226; single agent, read-out: IC50", "value": 27.4, "unit": "nM"}, {"measurement": "IC50", "setting": "BCN; [1]", "value": 59.3, "unit": "nM"}, {"measurement": "IC50", "setting": "BCN; single agent, read-out: IC50", "value": 1110, "unit": "nM"}, {"measurement": "IC50", "setting": "JIM3; [1]", "value": 25.9, "unit": "nM"}, {"measurement": "IC50", "setting": "JIM3; single agent, read-out: IC50", "value": 56.3, "unit": "nM"}, {"measurement": "IC50", "setting": "ANBL6; [1]", "value": 20.8, "unit": "nM"}, {"measurement": "IC50", "setting": "ANBL6; single agent, read-out: IC50", "value": 79.5, "unit": "nM"}, {"measurement": "IC50", "setting": "MM1S; [1]", "value": 23, "unit": "nM"}, {"measurement": "IC50", "setting": "MM1S; single agent, read-out: IC50", "value": 138, "unit": "nM"}, {"measurement": "IC50", "setting": "NAN3", "value": 1.5, "unit": "nM"}, {"measurement": "IC50", "setting": "NAN1; [1]", "value": 1.4, "unit": "nM"}, {"measurement": "IC50", "setting": "NAN1; single agent, read-out: IC50", "value": 5.7, "unit": "nM"}, {"measurement": "IC50", "setting": "XG7; [1]", "value": 8, "unit": "nM"}, {"measurement": "IC50", "setting": "XG7; single agent, read-out: IC50", "value": 16.3, "unit": "nM"}, {"measurement": "IC50", "setting": "LP1; [1]", "value": 2.9, "unit": "nM"}, {"measurement": "IC50", "setting": "LP1; single agent, read-out: IC50", "value": 158, "unit": "nM"}, {"measurement": "IC50", "setting": "NAN6; [1]", "value": 1.8, "unit": "nM"}, {"measurement": "IC50", "setting": "NAN6; single agent, read-out: IC50", "value": 7.1, "unit": "nM"}, {"measurement": "IC50", "setting": "XG3; [1]", "value": 1.3, "unit": "nM"}, {"measurement": "IC50", "setting": "XG3; single agent, read-out: IC50", "value": 6.1, "unit": "nM"}, {"measurement": "IC50", "setting": "KMM1; [1]", "value": 8.6, "unit": "nM"}, {"measurement": "IC50", "setting": "KMM1; single agent, read-out: IC50", "value": 57.8, "unit": "nM"}, {"measurement": "in vivo anti-leukaemic activity (luciferase tumour burden, survival)", "setting": "MV4;11 AML cells", "value": "reduced luciferase bulk"}, {"measurement": "proportion of primary AML samples highly sensitive (LC50<10 nM)", "setting": "primary AML blasts", "value": "Approximately 20%"}]}
